Test results from patent US11479546B2, “Antimalarial hexahydropyrimidine analogues” (UCB Biopharma SRL, priority 2018, dated 2022).

Test system: Plasmodium falciparum 3D7
Experiment: P. falciparum 3D7 asexual blood stage assay, Assay Procedure Version 2 (SYBR green readout)
Type: cell-based
Conditions: Version 2 of the assay procedure (asterisk *), 72 h incubation in infected erythrocytes, 50,000 nM to 15 nM
Method: Asexual Blood Stage Assay
The assay used to measure the effect of test compounds on a bloodstream stage of Plasmodium falciparum 3D7 strain employs SYBR green as the readout. This is a dye that binds to double stranded deoxyribonucleic acid (DNA) with a resulting increase in fluorescence, allowing detection of P. falciparum DNA in infected erythrocytes, and thereby providing a measure of parasite growth and propagation.
P. falciparum Culture Maintenance
Erythrocytes (A+blood) were prepared for both parasite culture and assay by washing 4 times with incomplete media (15.9 g RPMI 1640 (25 mM HEPES, L-glutamine), 1 g NaHCO3, 2 g glucose, 400 μL gentacin (500 mg/mL), 2 mL hypoxanthine solution (13.6 g/L in 0.1M NaOH pH 7.3) in 1 litre of media). The cells were centrifuged at 1800 g for 5 minutes, before decanting the supernatant and re-suspending in fresh incomplete media. On the final wash, the cells were re-suspended in complete media (incomplete media with 5 g/L AlbumaxII), and centrifuged at 1800 g for 3 minutes. This cell sediment was treated as 100% haematocrit.
P. falciparum 3D7 was cultured in erythrocytes at 5% haematocrit in complete media at 37° C. (1% O2, 3% CO2, balance N2). Cultures were split on a weekly basis to achieve a 1% parasitaemia in erythrocites at 5% haematocrit in fresh media. Culture media is replaced by fresh media every other day (2 times during the week).
[formula] where A=% inhibition at bottom; B=% inhibition at top; C=EC50; D=slope; x=inhibitor concentration; and y=% inhibition. […] Assay Procedure—Version 2
On day 1, test compounds were added to assay plates using Echo dispensing technology ([…] and 20 points titration). 50 nL of each compound dilution was added to 50 μL of culture (5% haematocrit, 0.5% parasitaemia) and incubated for 72 h at 37° C. (1% O2, 3% CO2, balance N2). Final concentrations of test compounds ranged from 50,000 nM to 15 nM, in […].
On day 4, 10 μL SYBR green (Invitrogen S7563 supplied as 10,000× concentrate in DMSO) pre-diluted to 3× concentrate with Lysis buffer (20 mM Tris pH 7.9, 5% EDTA, 0.16% w/v, 1.6% TX100 v/v) was added to the cultures and incubated in the dark, overnight, at room temperature.
On day 5, fluorescent signal was measured using a BioTek plate reader (excitation 485 nm, emission 528 nm). All data were processed using IDBS ActivityBase. Raw data were converted into percent inhibition through linear regression by setting the high inhibition control (mefloquine) as 100% and the no inhibition control (DMSO) as 0%. Quality control criteria for passing plates were as follows: Z′>0.5, S:B>3, % CV(no inhibition control)<15. The formula used to calculate Z′ is:
[formula] where μ denotes the mean; σ denotes the standard deviation; p denotes the positive control; and n denotes the negative control.
All EC50 curve fitting was undertaken using the following bi-phasic two site dose response using XLfit model 300 (IDBS):
[formula] where A=100 minus the top of the upper curve 1 and the bottom of lower curve; B=Hill slope; log(C)=IC50 concentration at lower site; log(D)=IC50 concentration at upper site; x=inhibitor concentration; and y=% inhibition.

[1] = Plasmodium falciparum, 3D7, Erythrocyte, 72 h

| SMILES | IC50 [1] | IC50 |
| --- | --- | --- |
| C[C@@]1(c2cccc(Nc3ccc(OC(F)F)nc3)c2Cl)CC(=O)N([C@@H]2C[C@H]3CC[C@@H](C2)O3)C(=N)N1 (mixture of isomers) [Example 156, (6S)-6-(2-Chloro-3-{[6-(difluoromethoxy)pyridin-3-yl]-amino}phenyl)-2-imino-6-methyl-3-[(1SR,5RS)-8-oxa-bicyclo[3.2.1]octan-3-yl]-hexahydropyrimidin-4-one] | 2980 nM | – |
| Cc1ccc(Nc2cccc([C@]3(C)CC(=O)N([C@@H]4C[C@H]5CC[C@@H](C4)O5)C(=N)N3)c2Cl)cn1 (mixture of isomers) [Example 157, (6S)-6-{2-Chloro-3-[(6-methyl-pyridin-3-yl)amino]phenyl}-2-imino-6-methyl-3-[(1SR,5RS)-8-oxabicyclo[3.2.1]octan-3-yl]-hexahydropyrimidin-4-one] | 3860 nM | – |
| C[C@@H]1C[C@H](N2C(=N)N[C@](C)(c3cccc(Nc4ccc(Cl)cc4)c3Cl)CC2=O)CCO1 (relative stereo) [Example 155, (6S)-6-[2-Chloro-3-(4-chloro-anilino)phenyl]-2-imino-6-methyl-3-[(2R*,4R*)-2-methyl-tetrahydropyran-4-yl]-hexahydropyrimidin-4-one] | 71 nM | – |
| C[C@@H]1C[C@H](N2C(=N)N[C@](C)(c3cccc(Nc4ccc(C5CC5)nc4)c3Cl)CC2=O)CCO1 (relative stereo) [Example 198, (6S)-6-{2-Chloro-3-[(6-cyclo-propylpyridin-3-yl)amino]-phenyl}-2-imino-6-methyl-3-[(2R*,4R*)-2-methyltetrahydro-pyran-4-yl]hexahydropyrimidin-4-one] | 22 nM | – |
| C[C@H]1C[C@@H](N2C(=N)N[C@](C)(c3cccc(Nc4ccc(C5CC5)nc4)c3Cl)CC2=O)CCO1 (relative stereo) [Example 199, (6S)-6-{2-Chloro-3-[(6-cyclo-propylpyridin-3-yl)amino]-phenyl}-2-imino-6-methyl-3-[(2S*,4S*)-2-methyltetrahydro-pyran-4-yl]hexahydropyrimidin-4-one] | 309 nM | – |
| C[C@@H]1C[C@H](N2C(=N)N[C@](C)(c3cccc(Nc4ccc(C5CC5)nn4)c3Cl)CC2=O)CCO1 (relative stereo) [Example 200, (6S)-6-{2-Chloro-3-[(6-cyclo-propylpyridazin-3-yl)amino]-phenyl}-2-imino-6-methyl-3-[(2R*,4R*)-2-methyltetrahydro-pyran-4-yl]hexahydropyrimidin-4-one] | 45 nM | – |
| C[C@@H]1C[C@H](N2C(=N)N[C@](C)(c3cccc(Nc4ccc(OCC(F)(F)F)nc4)c3Cl)CC2=O)CCO1 (relative stereo) [Example 201, (6S)-6-(2-Chloro-3-{[6-(2,2,2-trifluoroethoxy)pyridin-3-yl]-amino}phenyl)-2-imino-6-methyl-3-[(2R*,4R*)-2-methyl-tetrahydropyran-4-yl]-hexahydropyrimidin-4-one] | 102 nM | – |
| C[C@@H]1C[C@H](N2C(=N)N[C@](C)(c3cccc(Nc4ccc(OCC(F)(F)F)nn4)c3Cl)CC2=O)CCO1 (relative stereo) [Example 202, (6S)-6-(2-Chloro-3-{[6-(2,2,2-trifluoroethoxy)pyridazin-3-yl]-amino}phenyl)-2-imino-6-methyl-3-[(2R*,4R*)-2-methyl-tetrahydropyran-4-yl]-hexahydropyrimidin-4-one] | 112 nM | – |
| C[C@@H]1C[C@H](N2C(=N)N[C@](C)(c3cccc(Nc4ccc(OCC(F)F)nc4)c3Cl)CC2=O)CCO1 (relative stereo) [Example 203, (6S)-6-(2-Chloro-3-{[6-(2,2-difluoroethoxy)pyridin-3-yl]-amino}phenyl)-2-imino-6-methyl-3-[(2R*,4R*)-2-methyl-tetrahydropyran-4-yl]-hexahydropyrimidin-4-one] | 57 nM | – |
| Cc1ccc(Nc2cccc([C@]3(C)CC(=O)N([C@@H]4CCO[C@H](C)C4)C(=N)N3)c2Cl)cn1 (single isomer, unassigned) [Example 135] | 21 nM | – |
| Cc1ccc(Nc2cccc([C@]3(C)CC(=O)N([C@H]4CCO[C@@H](C)C4)C(=N)N3)c2Cl)cn1 (single isomer, unassigned) [Example 136] | 249 nM | – |
| CC1(C)CC(N2C(=N)N[C@](C)(c3cccc(Nc4ccc(OC(F)F)nc4)c3Cl)CC2=O)CCO1 (single isomer, unassigned) [Example 143, (6S)-6-(2-Chloro-3-{[6-(difluoromethoxy)pyridin-3-yl]-amino}phenyl)-3-[(4R*)-2,2-dimethyltetrahydropyran-4-yl]-2-imino-6-methylhexahydro-pyrimidin-4-one] | – | 996 nM |
| CC1(C)CC(N2C(=N)N[C@](C)(c3cccc(Nc4ccc(OC(F)F)nc4)c3Cl)CC2=O)CCO1 (single isomer, unassigned) [Example 144, (6S)-6-(2-Chloro-3-{[6-(difluoromethoxy)pyridin-3-yl]-amino}phenyl)-3-[(4S*)-2,2-dimethyltetrahydropyran-4-yl]-2-imino-6-methylhexahydro-pyrimidin-4-one] | – | 493 nM |
| Cc1ccc(Nc2cccc([C@]3(C)CC(=O)N(C4CCOC(C)(C)C4)C(=N)N3)c2Cl)cn1 (single isomer, unassigned) [Example 145, (6S)-6-{2-Chloro-3-[(6-methyl-pyridin-3-yl)amino]phenyl}-3-[(4R*)-2,2-dimethyltetrahydro-pyran-4-yl]-2-imino-6-methyl-hexahydropyrimidin-4-one] | – | 1260 nM |
| Cc1ccc(Nc2cccc([C@]3(C)CC(=O)N(C4CCOC(C)(C)C4)C(=N)N3)c2Cl)cn1 (single isomer, unassigned) [Example 146, (6S)-6-{2-Chloro-3-[(6-methyl-pyridin-3-yl)amino]phenyl}-3-[(4S*)-2,2-dimethyltetrahydro-pyran-4-yl]-2-imino-6-methyl-hexahydropyrimidin-4-one] | – | 425 nM |
| CC1(C)CC(N2C(=N)N[C@](C)(c3cccc(Nc4ccc(C5CC5)nc4)c3Cl)CC2=O)CCO1 (single isomer, unassigned) [Example 147, (6S)-6-{2-Chloro-3-[(6-cyclo-propylpyridin-3-yl)amino]-phenyl}-3-[(4S*)-2,2-dimethyl-tetrahydropyran-4-yl]-2-imino-6-methylhexahydropyrimidin-4-one] | – | 287 nM |
| CC1(C)CC(N2C(=N)N[C@](C)(c3cccc(Nc4ccc(C(C)(C)C)nc4)c3Cl)CC2=O)CCO1 (single isomer, unassigned) [Example 148, (6S)-6-{3-[(6-tert-Butylpyridin-3-yl)amino]-2-chlorophenyl}-3-[(4S*)-2,2-dimethyltetrahydro-pyran-4-yl]-2-imino-6-methyl-hexahydropyrimidin-4-one] | 368 nM | – |
| CC1(C)CC(N2C(=N)N[C@](C)(c3cccc(Nc4cnc(C(C)(C)C)cn4)c3Cl)CC2=O)CCO1 (single isomer, unassigned) [Example 149, (6S)-6-{3-[(5-tert-Butylpyrazin-2-yl)amino]-2-chlorophenyl}-3-[(4S*)-2,2-dimethyltetrahydro-pyran-4-yl]-2-imino-6-methyl-hexahydropyrimidin-4-one] | 1380 nM | – |
| CC1(C)CC(N2C(=N)N[C@](C)(c3cccc(Nc4ccc(C5CC5)nn4)c3Cl)CC2=O)CCO1 (single isomer, unassigned) [Example 150, (6S)-6-{2-Chloro-3-[(6-cyclo-propylpyridazin-3-yl)amino]-phenyl}-3-[(4S*)-2,2-dimethyl-tetrahydropyran-4-yl]-2-imino-6-methylhexahydropyrimidin-4-one] | 622 nM | – |
